Laboratory results taken from patent publication US20230218555A1, “CREATINE, ITS DERIVATIVES, COMPOSITIONS AND METHODS OF USE THEREOF” (priority 2021, published 2023).

How the values were obtained:
Type in all cases: in vivo, human
[1] = test system: Aphthous Ulcers (Canker Sores); experiment: Example 20: aphthous ulcers (canker sores), topical
Description: Two eroded painful sites 2-3 mm in diameter on the right side of the tongue worsened over 2 days in a subject. At bedtime of the 2nd day, the subject topically applied C15 3% in water: propylene glycol 8:2.

[2] = test system: post trauma pain in the pinned ankle; experiment: Example 34: ankle pain after surgical insertion of metal screws; conditions: prior applications of C15 formulations
Procedure: A subject with above described post trauma pain at the end of each day experienced painful discomfort in the pinned ankle. […] Complete relief lasted nearly 24 hours. At the end of the next day, the ankle was as painful as the days before. Subject applied 6% C20 in same liquid vehicle.

[3] = test system: osteoarthritis of numerous joints; experiment: Example 19: abdominal subcutaneous injections
Procedure: A physician subject with continually worsening, for 15-16 years, painful osteoarthritis of numerous joints (almost entire spine, wrists, right shoulder, knees and most recently the feet) on one day at 11:30 AM self injected subcutaneously the right abdominal area with 3 ml of a sterile aqueous solution that they had prepared containing N-acetyl ethyl creatinate 1%, arginine 0.25%, pH 7. Using 1 ml insulin syringes with short 8 mm needles 1 ml of the solution was injected into each of 3 sites. Ten minutes later their whole body was 95+% pain free and remained so for 3.5 hours when pain was sensed to be returning. Pain in usual severity returned within another 20-30 minutes.
The next day at 9:00 AM the subject injected 5 sites, each with 1 ml of the same solution. Within 10 minutes their whole body again was 95+% pain free. This almost complete pain free state was maintained for 4 hours when very mild pain in the knees was sensed. Pain in knees and in cervical spine returned to usual degree of severity within an ensuing period of about 20 minutes.

[4] = test system: pruritic urticarial mosquito bite lesions; experiment: Example 28: mosquito bite itch
Procedure: Six subjects, 2 males and 4 females, age 31-74 years, who had gathered for a back yard cookout, suffered multiple mosquito bites. One subject carried 2 ounces of C15 6% in WEP 532 shared with the five others for topical application to the pruritic urticarial mosquito bite lesions.
This solution was later applied to an intensely pruritic urticarial lesion, 1 cm in diameter, due to a mosquito bite. […] Clinical evidence of the lesion began to fade about 3 minutes later, and at 5 minutes the subject had no sensory awareness of the lesion as it disappeared over the next 10-15 minutes.

[5] = test system: sprained left ankle; experiment: Example 27: ankle sprain pain; conditions: 4% in WP 82, 2-3 times daily for 4-5 days
Description: A subject sprained their left ankle while hiking.

[6] = test system: dermatitis of uncertain etiology; experiment: Example 32: itch of dermatitis of uncertain etiology
Procedure: subject one who had worked planting a new rock and flower garden during the day, in the evening became acutely aware of an itch sensation in the lower back, just below the beltline. […] Itch relief lasted for 2-3 hours; three additional applications were made during the night. […] Etiology was not ascertained.

[7] = test system: painful right elbow; experiment: Example 24: osteoarthritis, elbow
Procedure: A subject presented with a history of painful right elbow for several weeks. They were provided with a topical solution of C15 8% in WP 82.
A subject with a history of right elbow for several months applied the above same solution to the elbo
On three other occasions, C15 1.5% aqueous solution 1 ml was injected subcutaneously in two lateral sites of the elbow and one site over extensor part of the elbow.

[8] = test system: thermal burns; experiment: Example 22: pain of thermal burns, topical; conditions: for relief of burn pain: person
Description: One subject spilled boiling hot water on their left hand. Within a couple hours pain was intense. They then applied 4% solution of N-acetyl ethyl creatinate (C15) dissolved in water: ethanol: propylene glycol 5:3:2 which they had been using to relieve pain over a lateral meniscus. […] Such application was continued over the next several days until the burn pain disappeared spontaneously.
A second subject burned their forearm where they accidentally touched the hot oven rack. They immediately applied 9% solution of N-acetyl ethyl creatinate (C15) dissolved in water: ethanol: propylene glycol 5:3:2 that they were using for topical treatment of their rheumatoid arthritis. […] Repeated application were applied over the next 3 days, until the burn pain spontaneously ceased.

[9] = test system: rheumatoid arthritis; rheumatoid nodule; experiment: Example 13: rheumatoid arthritis fingers, nodule injection and glove application; conditions: left hand only
Procedure: A subject noted changes in their fingers that appeared to be compatible with the diagnosis of early rheumatoid arthritis in autumn of the year. At about one month later there appeared over the terminal interphalangeal joint of the left third finger a raised inflammatory nodule compatible with the diagnosis of a rheumatoid nodule. The nodule was injected with 0.15 ml of a 2% aqueous solution/suspension of creatine monohydrate once weekly for four injections. […] Thereafter, for a period of one month, the subject wore a nitrile glove containing a few drops N-acetyl ethyl creatine 3% dissolved in water: propylene glycol 8:2 for about an hour twice daily on the left hand only.

[10] = test system: psoriatic arthritis; experiment: Example 25: psoriatic arthritis, topical C15
Description: A subject with a 42 year history of psoriasis, and psoriatic arthritis for the past 8 years, was provided a topical solution of C15 4% in WP 82. […] The subject has used topical formulations of C15 for over 12 weeks, comparing efficacy of 2%, 3.5% and 5% concentrations of C15.

With CCOC(=O)CN(C)C(N)=NC(C)=O [Compound C15, N-acetyl ethyl creatinate] the “extent of pain relief” value ([1]; 3% in water: propylene glycol 8:2, topical to tongue) was “Complete pain relief”, the “clinical sign of lesions next day” value ([1]; 3% topical) was “No clinical sign of the lesions could be detected next day” and the return of pain ([1]; 3% topical) was “remained pain free throughout the night and did not return”. The “time to pain relief” value ([1]; 3% topical) was “within less than a minute”, the “extent of pain relief” value [2] was “substantially relieve the pain but not completely” and the “whole body pain free” value ([3]; 3 ml of 1% solution (arginine 0.25%, pH 7), 1 ml into each of 3 abdominal sites, subcutaneous) was ≥ 95%. The “duration of pain free state” value ([3]; 3 ml, 3 sites) was 3.5 h, the “time to pain free state” value ([3]; 3 ml, 3 sites) was “Ten” and the “duration of pain free state” value ([3]; 5 sites, each 1 ml) was 4 h. The “time to pain free state” value ([3]; 5 sites, each 1 ml) was ≤ 10 min, the “whole body pain free” value ([3]; next day, 5 sites, each 1 ml of the same solution) was ≥ 95% and the “extent of itch relief” value ([4]; 6% in WEP 532, topical, six subjects) was “itch was completely eradicated”. The “extent of itch relief” value ([4]; 6% in WEP 532, person one, lesion 1 cm) was “all itch sensation was gone and did not return”, the “time to eradication of itch” value ([4]; 6% in WEP 532, six subjects) was “about 1 minute” and the “time to loss of itch sensation” value ([4]; person one) was ≤ 1 min. The “time until lesion began to fade, after itch relief” value ([4]; person one) was “about 3 minutes”, the “time of disappearance of lesion” value ([4]; person one, counted from 5 minutes) was 10 to 15 min and the return of itch ([4]; six subjects) was “No itch returned”. The “ankle pain at end of treatment” value [5] was “no ankle pain was detected”, the “extent of itch relief” value ([6]; 4% in water: propylene glycol 8:2, topical) was “Itch was completely relived” and the “duration of itch relief” value ([6]; 4% topical) was 2 to 3 h. For the same compound, the “resolution of dermatitis and itch” value ([6]; three additional applications during the night) was “The dermatitis and itch resolved early next day”, the “extent of pain relief” value ([7]; 1.5% aqueous solution 1 ml subcutaneous, three sites of elbow, person) was “complete relief of pain” and the duration of relief ([7]; 1.5% subcutaneous) was 24 to 30 h. For the same compound, the “time to pain relief” value ([7]; 1.5% subcutaneous) was “within an hour”, the relief of pain ([7]; 8% in WP 82, topical multiple times, person) was “No pain relieve was experienced” and the duration of relief ([7]; 8% in WP 82, topical, person) was 5 to 6 h. For the same compound, the relief of pain ([7]; 8% in WP 82, topical, person) was “relieved pain instantaneously completely”, the “relief of burn pain” value ([8]; 4% in water: ethanol: propylene glycol 5:3:2, topical, hand) was “immediate relief of the burn pain” and the duration of relief ([8]; 4% solution) was 4 to 5 h. The “relief of burn pain” value ([8]; 9% in water: ethanol: propylene glycol 5:3:2, topical, forearm) was “Burn pain was completely instantly relieved”, the duration of relief ([8]; 9% solution) was 4 to 5 h and the “pain on making a fist” value ([9]; 3% in glove) was “the left fist was pain free whereas the right fist was substantially painful”. For the same compound, the “size of tight fist” value ([9]; 3% in glove) was “the size of the left fist was visibly smaller than that of the right”, the “flexibility of hand and fingers” value ([9]; 3% in glove, right hand restricted) was “The left hand and fingers were completely flexible” and the “feel of treated left hand vs untreated right hand” value ([9]; 3% in water: propylene glycol 8:2 in nitrile glove, about an hour twice daily, one month, after another two months) was “feel much better than the right hand”. For the same compound, the duration of relief ([10]; 4% in WP 82) was 6 to 24 h, the relief of pain ([10]; 4% in WP 82, topical to wrists, hands, fingers and ankles, person) was “almost instantaneous, complete relief of pain” and the “comparison of 2%, 3.5% and 5% concentrations” value ([10]; 5% administered as a spray mist) was “most effective of the three”. For the same compound, the “duration of complete pain relief” value ([10]; 5% spray mist) was 24 h.
